# Reference: ChEMBL document CHEMBL1201862, “PubChem BioAssay data set” (2004)
# Calls of active or inactive are those of the source. For most assays here, no stated cut-off is given here; in the data, actives have a measured EC50 and inactives only a lower limit.
# Assays:
# [1] = biological target: T1, Replicative DNA helicase DnaB (Mycobacterium tuberculosis, UniProt P9WMR3); assay: DnaB intein splicing inhibitors, dose response, biochemical, cell-free fluorescence (AID 449749); type: functional
# T1 sequence (P9WMR3 whole entry): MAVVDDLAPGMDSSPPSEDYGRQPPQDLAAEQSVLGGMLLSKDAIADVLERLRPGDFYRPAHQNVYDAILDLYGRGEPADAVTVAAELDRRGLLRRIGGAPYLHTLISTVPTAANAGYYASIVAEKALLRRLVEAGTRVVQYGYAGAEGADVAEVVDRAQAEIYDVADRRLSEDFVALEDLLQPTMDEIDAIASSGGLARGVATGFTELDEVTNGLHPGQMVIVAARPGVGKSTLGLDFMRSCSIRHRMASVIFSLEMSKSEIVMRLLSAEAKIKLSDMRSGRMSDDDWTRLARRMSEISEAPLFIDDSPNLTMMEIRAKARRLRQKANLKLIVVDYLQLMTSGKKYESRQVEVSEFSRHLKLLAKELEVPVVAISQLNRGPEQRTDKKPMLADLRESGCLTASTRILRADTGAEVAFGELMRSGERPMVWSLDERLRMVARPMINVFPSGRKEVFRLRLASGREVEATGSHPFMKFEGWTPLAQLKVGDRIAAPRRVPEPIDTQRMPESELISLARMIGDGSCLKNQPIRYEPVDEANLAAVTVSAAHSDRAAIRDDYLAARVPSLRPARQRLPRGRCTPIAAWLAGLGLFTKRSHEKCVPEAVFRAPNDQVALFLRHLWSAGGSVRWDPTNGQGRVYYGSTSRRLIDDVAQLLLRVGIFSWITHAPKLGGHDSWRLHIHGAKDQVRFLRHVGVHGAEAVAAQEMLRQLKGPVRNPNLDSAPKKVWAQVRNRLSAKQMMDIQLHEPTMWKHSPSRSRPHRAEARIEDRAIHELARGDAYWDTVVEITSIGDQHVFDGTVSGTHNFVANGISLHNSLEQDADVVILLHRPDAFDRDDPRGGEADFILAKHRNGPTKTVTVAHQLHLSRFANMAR
# Protein RecA = biological target: T2, Protein RecA (Mycobacterium tuberculosis, UniProt P9WHJ3); assay: Fluorescence Cell-Free Homogeneous Dose Retest to Identify Inhibitors of RecA-Intein Splicing Activity. [Related pubchem assays (depositor defined):AID2097, AID2223, AID489010, AID492950]; type: functional
# T2 sequence (P9WHJ3 whole entry): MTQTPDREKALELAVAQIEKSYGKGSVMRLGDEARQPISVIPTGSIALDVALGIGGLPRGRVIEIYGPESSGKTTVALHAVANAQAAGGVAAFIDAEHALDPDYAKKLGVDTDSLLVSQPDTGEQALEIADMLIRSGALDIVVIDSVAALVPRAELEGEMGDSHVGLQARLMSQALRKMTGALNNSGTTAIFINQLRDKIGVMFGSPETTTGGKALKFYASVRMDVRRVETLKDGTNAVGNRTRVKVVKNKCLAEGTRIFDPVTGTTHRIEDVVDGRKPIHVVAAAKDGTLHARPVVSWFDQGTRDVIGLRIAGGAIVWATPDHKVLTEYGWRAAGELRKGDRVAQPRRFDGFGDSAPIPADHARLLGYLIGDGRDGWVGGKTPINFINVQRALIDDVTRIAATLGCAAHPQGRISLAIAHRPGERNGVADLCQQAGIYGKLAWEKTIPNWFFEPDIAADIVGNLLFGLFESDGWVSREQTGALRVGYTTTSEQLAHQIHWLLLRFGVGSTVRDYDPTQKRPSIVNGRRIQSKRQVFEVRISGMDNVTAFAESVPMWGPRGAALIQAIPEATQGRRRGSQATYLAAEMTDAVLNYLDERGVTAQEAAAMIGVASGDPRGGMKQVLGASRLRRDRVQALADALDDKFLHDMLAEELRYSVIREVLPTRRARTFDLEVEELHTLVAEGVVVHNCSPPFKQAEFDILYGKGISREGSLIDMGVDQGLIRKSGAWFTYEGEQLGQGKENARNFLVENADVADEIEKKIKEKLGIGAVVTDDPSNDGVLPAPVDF
# Cytochrome P450 1A2 = biological target: T3, Cytochrome P450 1A2 (Homo sapiens, UniProt P05177);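 further: PubChem cytochrome P450 panel assay, CYP1A2 panel member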
# T3 sequence (P05177 whole entry): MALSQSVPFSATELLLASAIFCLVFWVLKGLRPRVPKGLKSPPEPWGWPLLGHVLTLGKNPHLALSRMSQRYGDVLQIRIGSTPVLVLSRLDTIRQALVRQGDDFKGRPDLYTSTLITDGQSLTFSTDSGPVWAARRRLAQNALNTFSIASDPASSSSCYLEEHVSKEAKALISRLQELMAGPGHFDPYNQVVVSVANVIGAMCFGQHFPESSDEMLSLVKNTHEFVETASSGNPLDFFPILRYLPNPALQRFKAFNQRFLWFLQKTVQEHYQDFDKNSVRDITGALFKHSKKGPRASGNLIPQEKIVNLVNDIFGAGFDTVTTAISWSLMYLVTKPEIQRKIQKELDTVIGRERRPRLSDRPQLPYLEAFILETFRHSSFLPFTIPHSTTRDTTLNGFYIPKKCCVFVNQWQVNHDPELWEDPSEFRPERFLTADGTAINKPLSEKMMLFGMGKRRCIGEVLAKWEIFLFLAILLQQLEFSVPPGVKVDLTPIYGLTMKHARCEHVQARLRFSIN
# INS1 = assay: beta cell apoptosis inhibitors, cytokine rescue, dose response, luminescence, retest (AID 449756); type: functional, cell-based; settings: Rattus norvegicus;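 further: cell death triggered by IL-1 beta plus TNF-alpha plus IFN-gamma mixture; protective hits raise ATP signal compared with cytokine alone wells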
# [2] = NIH-3T3 fibroblast cytotoxicity, dose response, cytotoxicity control, cell-based, fluorescence, Alamar Blue, secondary assay (AID 2327); type: functional;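 further: NIH-3T3 mouse fibroblasts cultured with fluconazole at 8 µg/mL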
# [3] = C. albicans growth with fluconazole, confirmation, fluorescence, retest (AID 2467); type: functional, cell-based
# [4] = biological target: T4, RNA-binding protein pos-1 (Caenorhabditis elegans, UniProt G5EF15); assay: inhibitors of POS-1/mex-3 RNA binding, dose response, biochemical, fluorescence polarization (AID 1964);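 further: purified POS-1 fused to maltose binding protein made in E. coli; potency of compounds blocking POS-1 binding to fluorescent RNA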
# T4 sequence (G5EF15 whole entry): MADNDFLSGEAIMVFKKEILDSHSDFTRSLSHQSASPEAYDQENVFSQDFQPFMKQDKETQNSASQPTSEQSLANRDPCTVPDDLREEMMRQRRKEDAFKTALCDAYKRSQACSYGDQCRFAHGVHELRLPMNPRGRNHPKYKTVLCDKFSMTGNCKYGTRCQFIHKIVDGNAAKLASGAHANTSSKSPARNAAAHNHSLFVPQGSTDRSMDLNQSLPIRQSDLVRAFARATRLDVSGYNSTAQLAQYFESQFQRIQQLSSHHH
# [5] = biological target: T5, Zinc finger protein mex-5 (Caenorhabditis elegans, UniProt Q9XUB2); assay: MEX-5/TCR-2 RNA interaction inhibitors, dose response, biochemical, C. elegans, fluorescence polarization (AID 1960)
# T5 sequence (Q9XUB2 whole entry): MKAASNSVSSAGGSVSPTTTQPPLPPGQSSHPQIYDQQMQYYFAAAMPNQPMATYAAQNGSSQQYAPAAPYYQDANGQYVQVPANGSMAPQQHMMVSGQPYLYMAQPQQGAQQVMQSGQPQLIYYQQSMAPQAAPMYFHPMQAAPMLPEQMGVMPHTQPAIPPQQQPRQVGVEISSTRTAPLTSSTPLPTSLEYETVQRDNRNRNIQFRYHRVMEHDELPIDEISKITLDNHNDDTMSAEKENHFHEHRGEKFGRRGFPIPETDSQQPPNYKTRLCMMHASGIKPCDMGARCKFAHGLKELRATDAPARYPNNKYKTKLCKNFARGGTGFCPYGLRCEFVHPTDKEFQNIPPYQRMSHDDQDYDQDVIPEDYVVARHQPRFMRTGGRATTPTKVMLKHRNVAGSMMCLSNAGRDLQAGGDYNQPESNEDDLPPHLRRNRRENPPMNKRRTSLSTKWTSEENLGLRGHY
# [6] = inhibitors of intracellular T. cruzi replication, confirmation, NIH3T3 host cells, beta-gal luminescence (AID 2044); type: functional, cell-based;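 further: intracellular parasites grown in NIH/3T3 mouse fibroblasts as host cells; luminescent beta-galactosidase reporter signal from transgenic T. cruzi replicating inside host cells; inhibitors lower the luminescence signal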
# [7] = cytotoxicity toward NIH3T3 fibroblasts, dose response, counter-screen, cell-based, ATP luminescence, mouse fibroblasts (AID 2010); type: functional;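 further: cells exposed to compound for about 90 hours before reading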
# [8] = Shn3 3'UTR reporter inhibitors, dose response, cell-based, Clone20 osteoblasts, firefly luciferase, cherry-picked (AID 624132); type: functional;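 further: firefly luciferase luminescence from reporter carrying the Shn3 3'UTR in osteoblasts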
# [9] = control 3'UTR Renilla luciferase suppression, dose response, counter-screen for Shn3 inhibitor project, cell-based, Clone20-Shn3RL, cherry-picked (AID 624133); type: functional
# [10] = Luminescence Cell-Based Dose Retest to Confirm Inhibitors of Cancer Stem Cells. [Related pubchem assays (depositor defined):AID2717, AID2721]; type: functional; settings: Homo sapiens
# [11] = test system: Streptococcus sp. 'group A'; assay: growth inhibition of control SK(-) GAS strain, dose response, counter-screen for streptokinase expression inhibitor project, luminescence, kanamycin, BacTiterGlo, confirmation (AID 1900); type: functional, organism-based
# Streptokinase A = biological target: T6, Streptokinase A (Streptococcus pyogenes serotype M1, UniProt P10520); assay: S. pyogenes streptokinase expression inhibitors, potency, dose response, plasminogen activation absorbance, OD405 (AID 1914); type: functional, Streptococcus pyogenes M1 GAS;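 further: secreted streptokinase activity via plasminogen activation per viability signal from cell pellet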
# T6 sequence (P10520 whole entry): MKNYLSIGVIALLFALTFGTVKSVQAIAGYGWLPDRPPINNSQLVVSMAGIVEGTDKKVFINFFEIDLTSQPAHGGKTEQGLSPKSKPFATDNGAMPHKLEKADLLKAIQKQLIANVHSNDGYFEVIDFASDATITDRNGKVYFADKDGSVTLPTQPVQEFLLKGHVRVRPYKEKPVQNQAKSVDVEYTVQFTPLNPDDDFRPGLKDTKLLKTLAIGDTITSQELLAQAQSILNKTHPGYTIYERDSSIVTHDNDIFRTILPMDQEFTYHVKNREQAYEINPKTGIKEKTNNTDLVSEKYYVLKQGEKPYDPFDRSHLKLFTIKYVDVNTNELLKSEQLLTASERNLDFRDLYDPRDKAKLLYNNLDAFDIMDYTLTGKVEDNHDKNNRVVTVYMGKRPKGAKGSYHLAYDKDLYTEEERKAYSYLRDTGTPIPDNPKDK
# Streptococcus = assay: Group A Streptococcus viability loss, dose response, counter-screen for streptokinase expression inhibitor project, luminescence, BacTiterGlo (AID 1915); type: functional, organism-based;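 further: potency for reduction of bacterial viability or growth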
smiles,measurement,setting,value
Cc1[nH]c2ccccc2c1CCNC(=O)c1ccc2c(c1[N+](=O)[O-])C(=O)c1ccccc1C2=O,AC50,[1],10.1 µM (active)
same,EC50,Protein RecA,3.26 µM (active)
same,AC50,Cytochrome P450 1A2,4.47 µM (inconclusive)
Cc1ccc(C2CC(c3ccc(C)cc3)n3nc(N)nc3N2)cc1 (stereo not drawn),AC50,INS1,28.7 µM (active)
Cc1ccc(NC(=O)NCc2ccccn2)c(C)c1,EC50,[2],> 160 µM (inactive)
same,EC50,[3],6.59 µM (active)
O=C(O)c1ccc(/C=C(\c2nc3ccccc3[nH]2)c2nc3ccccc3s2)cc1,AC50,[1],> 380 µM (inactive)
same,EC50,Protein RecA,21 µM (active)
Cc1cccc(NC2=NC(=S)N(c3cccc(C(=O)O)c3)C23CCCCC3)c1,EC50,[2],19.7 µM (inconclusive)
same,EC50,[3],2.12 µM (active)
CCn1c(CNC(=O)c2ccc(Cl)cc2)nnc1SCC(=O)N1CCOCC1,EC50,[4],> 300 µM (not active)
same,EC50,[5],> 300 µM (not active)
COc1ccc(C2=CC3=CC(=O)C(C)(O)C(=O)C3=CO2)cc1 (stereo not drawn),EC50,[4],45.6 µM (active)
same,EC50,[5],25.5 µM (active)
CC1(C)CC(=O)C2=C(C1)OC(N)=C(C#N)C2c1ccc(OC(=O)N2CCOCC2)cc1 (stereo not drawn),EC50,[4],> 300 µM (not active)
same,EC50,[5],> 300 µM (not active)
CN(CCCNC(=O)CCCOc1cc(=O)n(C)c2ccccc12)Cc1ccccc1,EC50,[2],> 160 µM (inactive)
same,EC50,[3],> 38 µM (not active)
same,EC50,[6],0.46 µM (active)
same,EC50,[7],> 30 µM (not active)
NC(=O)c1cc(N2C(=O)C=CC2=O)ccc1Cl,AC50,[8],11.3 µM (active)
same,AC50,[9],25.5 µM (active)
CCOC(=O)C1CCCN(c2cc(C)nc3cc(-c4ccc(F)cc4)nn23)C1 (stereo not drawn),EC50,[2],> 160 µM (inactive)
same,EC50,[3],> 38 µM (not active)
O=C(O)c1ccc(-n2c(=O)c3ccccc3c3ccccc3c2=O)cc1,AC50,[1],15.8 µM (active)
same,EC50,Protein RecA,70.7 µM (active)
CCc1c(C)nc(SCC(=O)NNC(=O)c2ccco2)[nH]c1=O,EC50,[4],7.26 µM (inconclusive)
same,EC50,[5],10.1 µM (active)
COc1ccc2nc(N=Nc3ccc(O)c4ccccc34)sc2c1,AC50,[10],1.73 µM (active)
same,AC50,INS1,2.09 µM (active)
O=C1c2ccccc2C2=Nc3ccccc3SC(c3ccc(Cl)cc3)C12 (stereo not drawn),EC50,[11],2.87 µM (active)
same,EC50,Streptokinase A,> 150 µM (not active)
same,EC50,Streptococcus,4.58 µM (active)
same,AC50,[10],5.23 µM (active)
same,AC50,INS1,14.1 µM (active)
O=C1N=NC2=C1c1c3ccccc3c(O)n1CC2,AC50,[1],15.6 µM (active)
same,EC50,Protein RecA,7.63 µM (active)
Cc1cc2nc(Sc3c([N+](=O)[O-])nc(C)n3Cc3ccccc3)[nH]c2cc1C,AC50,[1],11.3 µM (active)
same,EC50,Protein RecA,7.56 µM (active)
Cc1ccc(/C=C2\C(=O)NC(=O)N(CC3CCCO3)C2=O)s1 (stereo not drawn),EC50,[4],> 300 µM (not active)
same,EC50,[5],> 300 µM (not active)
O=C1NC(=O)/C(=C2\C(=O)Nc3ccc(Br)cc32)S1,EC50,[4],17 µM (active)
same,EC50,[5],11 µM (active)
Cc1ccc(-c2ccc(CCC(=O)O)n2-c2ccc(C(=O)O)cc2)cc1,EC50,[4],> 300 µM (not active)
same,EC50,[5],> 300 µM (not active)
COC(/C(=N/O)c1ccc(Cl)cc1)c1ccccc1 (stereo not drawn),AC50,INS1,2.72 µM (active)
O=C(CN1CCCc2ccccc21)N/N=C/c1ccccc1O,AC50,INS1,4.81 µM (active)
O=C(N/N=C/c1ccc([N+](=O)[O-])o1)c1ccccc1NS(=O)(=O)c1cccs1,AC50,[1],> 380 µM (inactive)
same,EC50,Protein RecA,125 µM (active)
Cc1cc(/C=N/n2cnnc2)c(C)n1-c1ccc(C(=O)O)cc1,EC50,[4],> 300 µM (not active)
same,EC50,[5],> 300 µM (not active)
O=C(Nc1ccccc1O)c1ccccc1O,EC50,[2],> 150 µM (inactive)
same,EC50,[3],6.43 µM (active)
